Data published in ChEMBL document CHEMBL4219086, “Development of benzoxazole deoxybenzoin oxime and acyloxylamine derivatives targeting innate immune sensors and xanthine oxidase for treatment of gout” (Bioorg Med Chem, 2018).
Active and inactive are the calls of the source. No cut-off for these calls is given here.

Legend:
[1] = test system: Rattus norvegicus; test: (§1) Antiarthritic activity in MSU-induced acute gouty arthritis Sprague-Dawley rat model assessed as reduction in ankle swelling by measuring perimeter of ankle at 10 mg/kg, po qd pretreated via gavage for 5 days followed by MSU treatment at 1 hr post last dose measured after 2 hrs (reference value: 2.82 +/- 0.75 cm); assay type: functional
[2] = biological target: Xanthine dehydrogenase/oxidase (Homo sapiens, UniProt P47989); test: Competitive inhibition of Xanthine oxidase (unknown origin) using xanthine as substrate preincubated for 1 to 5 mins followed by substrate addition by Lineweaver-Burk plot analysis
Chain of Xanthine dehydrogenase/oxidase (P47989 whole entry): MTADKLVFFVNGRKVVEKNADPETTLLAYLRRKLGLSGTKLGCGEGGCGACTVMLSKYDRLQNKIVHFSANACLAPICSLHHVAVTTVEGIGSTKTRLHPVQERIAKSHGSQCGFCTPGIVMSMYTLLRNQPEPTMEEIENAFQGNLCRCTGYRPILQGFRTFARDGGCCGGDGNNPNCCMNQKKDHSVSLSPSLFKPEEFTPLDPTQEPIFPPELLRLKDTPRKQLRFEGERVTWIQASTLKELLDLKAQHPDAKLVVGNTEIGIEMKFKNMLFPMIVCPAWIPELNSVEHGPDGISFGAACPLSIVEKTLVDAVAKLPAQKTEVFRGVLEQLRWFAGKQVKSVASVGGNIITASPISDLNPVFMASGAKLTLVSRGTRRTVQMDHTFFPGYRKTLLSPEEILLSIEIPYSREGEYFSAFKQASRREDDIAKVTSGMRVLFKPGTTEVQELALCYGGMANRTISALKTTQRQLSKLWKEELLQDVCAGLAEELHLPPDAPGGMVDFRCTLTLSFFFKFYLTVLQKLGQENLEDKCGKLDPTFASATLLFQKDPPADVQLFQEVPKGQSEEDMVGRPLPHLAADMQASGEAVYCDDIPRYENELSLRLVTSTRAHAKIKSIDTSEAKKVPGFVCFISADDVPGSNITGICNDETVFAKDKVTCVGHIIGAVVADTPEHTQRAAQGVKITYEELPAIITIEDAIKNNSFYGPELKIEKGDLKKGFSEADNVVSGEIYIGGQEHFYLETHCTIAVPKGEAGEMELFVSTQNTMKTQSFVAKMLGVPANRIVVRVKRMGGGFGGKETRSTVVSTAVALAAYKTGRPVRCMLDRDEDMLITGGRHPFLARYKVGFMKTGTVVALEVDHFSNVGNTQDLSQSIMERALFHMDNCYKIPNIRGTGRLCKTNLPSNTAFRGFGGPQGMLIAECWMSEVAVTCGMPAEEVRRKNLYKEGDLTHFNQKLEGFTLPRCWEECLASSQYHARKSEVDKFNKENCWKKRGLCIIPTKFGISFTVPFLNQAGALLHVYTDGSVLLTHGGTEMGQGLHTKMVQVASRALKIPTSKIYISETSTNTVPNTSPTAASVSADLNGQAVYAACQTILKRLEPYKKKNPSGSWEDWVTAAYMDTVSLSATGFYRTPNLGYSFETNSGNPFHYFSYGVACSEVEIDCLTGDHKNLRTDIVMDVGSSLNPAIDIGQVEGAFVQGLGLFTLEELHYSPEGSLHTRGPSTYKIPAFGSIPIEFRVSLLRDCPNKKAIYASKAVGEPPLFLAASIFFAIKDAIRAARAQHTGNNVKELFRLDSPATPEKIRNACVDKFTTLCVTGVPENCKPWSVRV

[3] = test system: Rattus norvegicus; test: as §1, with “24” for “2”, “3.35” for “2.82”, “0.5” for “0.75”; assay type: functional
[4] = test system: Rattus norvegicus; test: as §1, with “5” for “10”, “4” for “2”, “3.18” for “2.82”, “0.64” for “0.75”; assay type: functional
[5] = test system: Rattus norvegicus; test: as §1, with “2.5” for “10”; assay type: functional
[6] = test system: Rattus norvegicus; test: Inhibition of MSU-induced IL-1beta level in synovial homogenate of acute gouty arthritis Sprague-Dawley rat model at 2.5 to 10 mg/kg, po qd pretreated via gavage for 5 days followed by MSU treatment at 1 hr post last dose measured up to 24 hrs by ELISA; assay type: functional, organism-based
[7] = test system: Rattus norvegicus; test: as §1, with “immediately” for “after 2 hrs”, “2.64” for “2.82”, “0.81” for “0.75”; assay type: functional
[8] = test system: Rattus norvegicus; test: as §1, with “2.5” for “10”, “8” for “2”, “3.27” for “2.82”, “0.56” for “0.75”; assay type: functional
[9] = test system: Rattus norvegicus; test: Inhibition of MSU-induced caspase-1 protein level in synovial homogenate of acute gouty arthritis Sprague-Dawley rat model at 2.5 to 10 mg/kg, po qd pretreated via gavage for 5 days followed by MSU treatment at 1 hr post last dose measured up to 24 hrs by Western blot method; assay type: functional, organism-based
[10] = test system: Mus musculus; test: Anti-hyperuricemic effect in Kunming mouse assessed as inhibition of potassium oxonate-induced serum uric acid level administered po 1 hr post potassium oxonate addition measured after 1 hr by phosphotungstic acid method; assay type: functional, organism-based
[11] = biological target: NACHT, LRR and PYD domains-containing protein 3 (Homo sapiens, UniProt Q96P20); test: Inhibition of NLRP3 inflammasome in human THP1 cells assessed as reduction in MSU-induced IL-1beta production preincubated for 1 hr followed by MSU stimulation measured after 6 hrs; assay type: cell-based
Chain of NACHT, LRR and PYD domains-containing protein 3 (Q96P20 whole entry, the tested form may be a part): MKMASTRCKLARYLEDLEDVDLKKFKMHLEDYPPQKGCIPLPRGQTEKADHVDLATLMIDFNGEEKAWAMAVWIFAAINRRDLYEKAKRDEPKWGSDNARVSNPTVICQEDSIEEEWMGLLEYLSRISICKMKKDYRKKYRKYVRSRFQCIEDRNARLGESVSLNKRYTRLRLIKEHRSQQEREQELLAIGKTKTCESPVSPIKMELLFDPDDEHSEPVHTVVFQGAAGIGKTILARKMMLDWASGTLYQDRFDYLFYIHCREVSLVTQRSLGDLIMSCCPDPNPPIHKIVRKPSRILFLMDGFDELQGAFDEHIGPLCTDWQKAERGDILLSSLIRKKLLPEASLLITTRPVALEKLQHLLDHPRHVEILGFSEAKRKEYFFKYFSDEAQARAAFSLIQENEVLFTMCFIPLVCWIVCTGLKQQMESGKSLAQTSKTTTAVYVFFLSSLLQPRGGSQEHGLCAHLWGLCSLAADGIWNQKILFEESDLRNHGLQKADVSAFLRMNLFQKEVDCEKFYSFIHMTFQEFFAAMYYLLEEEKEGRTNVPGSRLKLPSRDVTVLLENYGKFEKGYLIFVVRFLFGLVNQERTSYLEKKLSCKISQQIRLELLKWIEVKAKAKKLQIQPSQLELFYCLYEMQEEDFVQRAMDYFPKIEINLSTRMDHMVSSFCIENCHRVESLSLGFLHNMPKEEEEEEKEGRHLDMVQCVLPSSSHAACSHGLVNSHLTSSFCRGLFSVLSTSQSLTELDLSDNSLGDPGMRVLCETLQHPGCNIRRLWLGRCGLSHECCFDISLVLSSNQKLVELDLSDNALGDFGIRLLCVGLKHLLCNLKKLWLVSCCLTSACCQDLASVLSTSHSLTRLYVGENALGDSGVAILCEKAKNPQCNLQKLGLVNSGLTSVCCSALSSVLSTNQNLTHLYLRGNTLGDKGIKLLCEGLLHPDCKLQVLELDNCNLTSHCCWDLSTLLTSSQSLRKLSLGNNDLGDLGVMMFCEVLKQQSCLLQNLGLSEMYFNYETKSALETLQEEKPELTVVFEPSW

[12] = test system: Rattus norvegicus; test: as §1, with “5” for “10”, “immediately” for “after 2 hrs”, “2.64” for “2.82”, “0.81” for “0.75”; assay type: functional

COc1ccc(C/C(=N\O)c2nc3ccc(OC)cc3o2)cc1
Activity [1]: 2.69 cm | Ki [2]: 2.89 µM | Activity [3]: 2.73 cm | Activity [4]: 2.84 cm | Activity [5]: 2.78 cm | inhibition [6]: Active | Activity [7]: 2.56 cm | Activity [8]: 2.96 cm | inhibition [9]: Active | inhibition [10]: Dose-dependent effect | IC50 [11]: 1.22 µM | Activity [12]: 2.7 cm
